Measurements from publication PMC7402176, “Highlighting the Biological Potential of the Brown Seaweed Fucus spiralis for Skin Applications” (Antioxidants, 2020).

Molecular target: T1, collagenase
T1 construct: gene colG; commercial kit enzyme (EnzChek Gelatinase/Collagenase Assay Kit); native bacterial preparation, usually a mixture of collagenases
Test: fluorescence assay, fluorescein-conjugate gelatin cleavage
Type: biochemical
Conditions: positive control; EnzChek kit
From the text: fluorescence assay, fluorescein-conjugate gelatin cleavage on collagenase

## O=C(O[C@@H]1Cc2c(O)cc(O)cc2O[C@@H]1c1cc(O)c(O)c(O)c1)c1cc(O)c(O)c(O)c1 [(−)-Epigallocatechin gallate]
  Collagenase: 4.8 (4.1–5.5) µg/mL
